Test results: patent US11401278B2, “Macrocyclic indole derivatives” (The Broad Institute, Inc., priority 2017, dated 2022)
Counter-ions that a name gives are not always drawn. Like-named read-outs stand apart in the source and are kept apart here.

Experiments:
SUDHL10 [1] = test: Induction of caspase-3/7 activity (Assay 4), SUDHL10; assay type: cell-based; conditions: caspase-3/7 induction, median
Summary of the method: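 DLBCL cells were exposed to compounds for 3 hours at 37 °C, then caspase-3/7 activation was read with Caspase-Glo 3/7 reagent. After subtracting medium-only background, EC50s were derived with fixed C0=1 and the reference compound's maximal induction as plateau.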

SUDHL5 [2] = test: Antiproliferation assay (Assay 7), SUDHL5; assay type: cell-based; conditions: CellTiter-Glo, median, read-out: Antiproli SUDHL5 [M] (median) IC50
Summary of the method: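 Proliferation was read by CellTiter-Glo luminescence after 72 hours of compound treatment at 37° C. The read was referenced to a parallel plate measured at time zero.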

SUDHL5 [3] = test: Induction of cytotoxicity (Assay 6), SUDHL5; conditions: read-out: Cytotox SUDHL5 [M] (median) IC50, CellTiter-Glo, 5 hours, SUDHL5
SUDHL10 [4] = test: Induction of cytotoxicity (Assay 6), SUDHL10; conditions: read-out: Cytotox SUDHL10 [M] (median) IC50, CellTiter-Glo, 5 hours, SUDHL10
Description: Assay 6 Induction of Cytotoxicity Upon Treatment of Cells with Selected Compounds
Therefore, cytotoxicity assays were run in parallel in SUDHL5 and SUDHL10 cells.
The different cell lines were plated in culture medium (RPMI 1640 [GIBCO #22400-089] supplemented with 10% Fetal Bovine Serum) at a density of 3,300 cells in 30 μl/well in a sterile, solid black, flat bottom, polystyrene, TC-treated 384-well microplate (Corning #3571) using Multidrop Combi Reagent Dispenser. As a control, medium without cells was also added to the plate. Cells were incubated in a humidified incubator at 37° C. overnight. On the next day, the cells were treated with compounds (stock solution, 10 mM in DMSO) using the HP D300 Digital Dispenser in a concentration range of 3.3×10e-5 M (33 μM) to 5×10e-9 M (5 nM) in a single-dot curve with at least 16 dilutions and a DMSO concentration of 0.33%. Rim wells were excluded. The cells were incubated for 5 hours in a humidified incubator at 37° C. After this incubation, 30 μl of CellTiter-Glo® Luminescent Cell Viability reagent (Promega, G7573) was added to each well using the Multidrop Combi Reagent Dispenser, followed by 15 minutes incubation on a shaker at room temperature. Finally, luminescence was read at 0.1 ms, with a gain of 3000 using the PHERAstar FS microplate reader (BMG Labtech).

| EC50 (SUDHL10 [1]; 3 hours) [nM] | IC50 (SUDHL5 [2]; 72 hours) [M] | EC50 (SUDHL10 [1]; Homo sapiens, SU-DHL10, 3 h) [nM] | IC50 (SUDHL5 [2]; Homo sapiens, SU-DHL-5, 72 h) [M] | Structure (SMILES) | IC50 (SUDHL5 [3]) [M] | IC50 (SUDHL10 [4]) [M] | IC50 (SUDHL5 [3]; Homo sapiens, SU-DHL-5, 5 h) [M] | IC50 (SUDHL10 [4]; Homo sapiens, SU-DHL10, 5 h) [M] |
| --- | --- | --- | --- | --- | --- | --- | --- | --- |
| 770 | 5.9e-07 | – | – | CCc1c2c(nn1C)CN(C1CC1)S(=O)(=O)CCCn1c(C(=O)O)c(CCCOc3cccc4cc(F)ccc34)c3ccc(Cl)c-2c31 (racemic) [Example 53, (rac)-4-chloro-14-cyclopropyl-3-ethyl-7-{3-[(6-fluoro-1-naphthyl)oxy]propyl}-2-methyl-11,12,14,15-tetrahydro-2H,10H-pyrazolo[3′,4′:4,5][1,2,8]thiadiazacycloundecino[6,7,8-hi]indole-8-carboxylic acid 13,13-dioxide] | 8.1e-07 | 9e-07 | – | – |
| – | – | 160 | 9.6e-08 | CCc1c2c(nn1C)CN(CC)S(=O)(=O)CCCn1c(C(=O)O)c(CCCOc3cccc4cc(F)ccc34)c3ccc(Cl)c-2c31 (racemic) [Example 56, (rac)-4-chloro-3,14-diethyl-7-{3-[(6-fluoro-1-naphthyl)oxy]propyl}-2-methyl-11,12,14,15-tetrahydro-2H,10H-pyrazolo[3′,4′:4,5][1,2,8]thiadiazacycloundecino[6,7,8-hi]indole-8-carboxylic acid 13,13-dioxide] | – | – | 2.8e-07 | 2.5e-07 |
| 32 | 1.8e-08 | – | – | CCc1c2c(nn1C)C(CCC1CCOCC1)N(C)S(=O)(=O)CCCn1c(C(=O)O)c(CCCOc3cccc4cc(F)ccc34)c3ccc(Cl)c-2c31 (racemic) [Example 60, (rac)-4-chloro-3-ethyl-7-{3-[(6-fluoro-1-naphthyl)oxy]propyl}-2,14-dimethyl-15-[2-(tetrahydro-2H-pyran-4-yl)ethyl]-11,12,14,15-tetrahydro-2H,10H-pyrazolo[3′,4′:4,5][1,2,8]thiadiazacycloundecino[6,7,8-hi]indole-8-carboxylic acid 13,13-dioxide (Racemate 1)] | 2.8e-08 | 3.9e-08 | – | – |
| 590 | 5.1e-07 | – | – | Cc1c2c(nn1C)CN(C)S(=O)(=O)CCCn1c(C(=O)O)c(CCCOc3cccc4ccccc34)c3ccc(Cl)c-2c31 (single isomer, unassigned; enantiomer 1) [Example 5, 4-Chloro-2,3,14-trimethyl-7-{3-[(naphthalen-1-yl)oxy]propyl}-13,13-dioxo-10,11,12,13,14,15-hexahydro-2H-13λ^6-pyrazolo[3′,4′:4,5][1,2,8]thiadiazacycloundecino[6,7,8-hi]indole-8-carboxylic acid-N-ethylethanamine salt (Enantiomer 1)] | 4.9e-07 | 7.1e-07 | – | – |
| 520 | 4.1e-07 | – | – | CCc1c2c(nn1C)CN(C1CC1)S(=O)(=O)CCCn1c(C(=O)O)c(CCCOc3cccc4cc(F)ccc34)c3ccc(Cl)c-2c31 (single isomer, unassigned; enantiomer 1) [Example 54, (−)-4-chloro-14-cyclopropyl-3-ethyl-7-{3-[(6-fluoronaphthalen-1-yl)oxy]propyl}-2-methyl-13,13-dioxo-10,11,12,13,14,15-hexahydro-2H-13lambda^6-pyrazolo[3′,4′:4,5][1,2,8]thiadiazacycloundecino[6,7,8-hi]indole-8-carboxylic acid N-ethylethanamine Salt (Enantiomer 1)] | 3.6e-07 | 6.5e-07 | – | – |
| 14000 | 1.1e-05 | – | – | Cc1c2c(nn1C)CN(C)S(=O)(=O)CCCn1c(C(=O)O)c(CCCOc3cccc4ccccc34)c3ccc(Cl)c-2c31 (single isomer, unassigned; enantiomer 2) [Example 6, 4-Chloro-2,3,14-trimethyl-7-{3-[(naphthalen-1-yl)oxy]propyl}-13,13-dioxo-10,11,12,13,14,15-hexahydro-2H-13λ^6-pyrazolo[3′,4′:4,5][1,2,8]thiadiazacycloundecino[6,7,8-hi]indole-8-carboxylic acid-N-ethylethanamine salt (Enantiomer 2)] | 1.2e-05 | 1.7e-05 | – | – |
| 380 | 3e-07 | – | – | Cc1c2c(nn1C)C(CCN1CCOCC1)N(C)S(=O)(=O)CCCn1c(C(=O)O)c(CCCOc3cccc4ccccc34)c3cccc-2c31 (single isomer, unassigned; enantiomer 2) [Example 46, 2,3,14-trimethyl-15-[2-(morpholin-4-yl)ethyl]-7-{3-[(naphthalen-1-yl)oxy]propyl}-13,13-dioxo-10,11,12,13,14,15-hexahydro-2H-13lambda^6-pyrazolo[3′,4′:4,5][1,2,8]thiadiazacycloundecino[6,7,8-hi]indole-8-carboxylic acid N-ethylethanamine Salt (Enantiomer 2)] | 5e-07 | 6.1e-07 | – | – |
| 12 | 6.7e-09 | – | – | Cc1c2c(nn1C)C(CCN1CCOCC1)N(C)S(=O)(=O)CCCn1c(C(=O)O)c(CCCOc3cccc4cc(F)ccc34)c3ccc(Cl)c-2c31 (single isomer, unassigned; enantiomer 2) [Example 67, 4-chloro-7-{3-[(6-fluoronaphthalen-1-yl)oxy]propyl}-2,3,14-trimethyl-15-[2-(morpholin-4-yl)ethyl]-13,13-dioxo-10,11,12,13,14,15-hexahydro-2H-13lambda^6-pyrazolo[3′,4′:4,5][1,2,8]thiadiazacycloundecino[6,7,8-hi]indole-8-carboxylic acid (Enantiomer 2)] | 9.8e-09 | 1.8e-08 | – | – |

| Structure (SMILES) | EC50 (SUDHL10 [1]; 3 hours) [nM] | IC50 (SUDHL5 [2]; 72 hours) [M] | EC50 (SUDHL10 [1]; Homo sapiens, SU-DHL10, 3 h) [nM] | IC50 (SUDHL5 [2]; Homo sapiens, SU-DHL-5, 72 h) [M] | IC50 (SUDHL5 [3]) [M] | IC50 (SUDHL10 [4]) [M] | IC50 (SUDHL5 [3]; Homo sapiens, SU-DHL-5, 5 h) [M] | IC50 (SUDHL10 [4]; Homo sapiens, SU-DHL10, 5 h) [M] |
| --- | --- | --- | --- | --- | --- | --- | --- | --- |
| CCc1c2c(nn1C)C(CCN1CCOCC1)N(C)S(=O)(=O)CCCn1c(C(=O)O)c(CCCOc3cccc4cc(F)ccc34)c3ccc(Cl)c-2c31 (racemic) [Example 73, (rac)-(4-chloro-3-ethyl-7-{3-[(6-fluoronaphthalen-1-yl)oxy]propyl}-2,14-dimethyl-15-[2-(morpholin-4-yl)ethyl]-13,13-dioxo-10,11,12,13,14,15-hexahydro-2H-13lambda^6-pyrazolo[3′,4′:4,5][1,2,8]thiadiazacycloundecino[6,7,8-hi]indole-8-carboxylic acid (Racemate 1)] | 230 | 1.5e-08 | – | – | – | – | – | – |
| CCNCC.CCc1c2c(nn1C)C(CCN1CCOCC1)N(C)S(=O)(=O)CCCn1c(C(=O)O)c(CCCOc3cccc4cc(F)ccc34)c3ccc(Cl)c-2c31 (single isomer, unassigned; enantiomer 2) [Example 76, 4-chloro-3-ethyl-7-{3-[(6-fluoronaphthalen-1-yl)oxy]propyl}-2,14-dimethyl-15-[2-(morpholin-4-yl)ethyl]-13,13-dioxo-10,11,12,13,14,15-hexahydro-2H-13lambda^6-pyrazolo[3′,4′:4,5][1,2,8]thiadiazacycloundecino[6,7,8-hi]indole-8-carboxylic acid-N-ethylethanamine Salt (Enantiomer 2)] | 5.5 | 5.7e-09 | – | – | 6.7e-09 | 8.2e-09 | – | – |
